Converted amounts (≈) assume the structure as drawn. Where a name gives a salt, the structure may show the parent alone. Read-outs that look alike come from different tables or passages of the source.
Key:
Assay type in all cases: cell-based
[1] = tested on: P. aeruginosa NB52023 (efflux deficient K1542, ΔmexX ΔmexB); test: microbe, parasite or virus in culture; details: Pseudomonas aeruginosa, 20 h, read-out: Antibacterial activity (MIC) NB52023
[2] = tested on: E. coli NB27177 (efflux deficient CGSC 11430, ΔtolC732::kan); test: microbe, parasite or virus in culture; details: Escherichia coli, 20 h, read-out: Antibacterial activity (MIC) NB27177
[3] = tested on: S. aureus ATCC 29213 (NB01001); test: MIC, broth microdilution (CLSI); details: Staphylococcus aureus, ATCC29213; S. aureus ATCC 29213; 35° C., 20 hours; read-out: Antibacterial activity (MIC) NB01001
[4] = tested on: S. aureus NB01006-AVR005 (gyrA S84L, grlA S80F, grlB E471K); test: microbe, parasite or virus in culture; details: Staphylococcus aureus, 20 h, read-out: Antibacterial activity (MIC) NB01006-AVR005
[5] = tested on: P. aeruginosa NB52023-CDK0006 (gyrA T83I, parC S87L); test: microbe, parasite or virus in culture; details: Pseudomonas aeruginosa, 20 h, read-out: Antibacterial activity (MIC) NB52023-CDK0006
[6] = tested on: P. aeruginosa NB52019 (wild-type PAO1); test: MIC, broth microdilution (CLSI); details: Pseudomonas aeruginosa, read-out: Antibacterial activity (MIC) NB52019
[7] = tested on: E. coli ATCC 25922 (NB27001); test: MIC, broth microdilution (CLSI); details: Escherichia coli, ATCC25922; E. coli ATCC 25922; 35° C., 20 hours; read-out: Antibacterial activity (MIC) NB27001
[8] = P. aeruginosa wild-type PAO1, 35° C., 20 hours

Row | Compound | MIC [1] [µg/mL] | MIC [2] [µg/mL] | MIC [3] [µg/mL] | MIC [4] [µg/mL] | MIC [5] [µg/mL] | MIC ([6]; PAO1, 20 h) [µg/mL] | MIC [7] [µg/mL] | MIC [6, 8] [µg/mL]
1 | Cc1c(N2CC[C@@H]([C@H](C)N)C2)c(F)cc2c(OCCCC(=O)O)cc(=O)n(C3CC3)c12 [Example 61, 4-((7-((R)-3-((S)-1-aminoethyl)pyrrolidin-1-yl)-1-cyclopropyl-6-fluoro-8-methyl-2-oxo-1,2-dihydroquinolin-4-yl)oxy)butanoic acid] | > 32 | > 32 | > 32 | > 32 | > 32 | 32 (≈ 74.2 µM) | 32 (≈ 74.2 µM) | 
2 | Cc1c(N2CC[C@@H]([C@H](C)N)C2)c(F)cc2c(OCCCc3n[nH]c(=O)o3)cc(=O)n(C3CC3)c12 [Example 65, 5-(3-((7-((R)-3-((S)-1-aminoethyl)pyrrolidin-1-yl)-1-cyclopropyl-6-fluoro-8-methyl-2-oxo-1,2-dihydroquinolin-4-yl)oxy)propyl)-1,3,4-oxadiazol-2(3H)-one] | > 32 | 4 (≈ 8.48 µM) | 4 (≈ 8.48 µM) | 2 (≈ 4.24 µM) | > 32 | > 32 | 32 (≈ 67.9 µM) | 
3 | Cc1c(N2CC[C@@H]([C@H](C)N)C2)c(F)cc2c(OCCNS(C)(=O)=O)cc(=O)n(C3CC3)c12 [Example 66, N-(2-((7-((R)-3-((S)-1-aminoethyl)pyrrolidin-1-yl)-1-cyclopropyl-6-fluoro-8-methyl-2-oxo-1,2-dihydroquinolin-4-yl)oxy)ethyl)methanesulfonamide] | > 32 | 2 (≈ 4.29 µM) | 4 (≈ 8.57 µM) | 4 (≈ 8.57 µM) | > 32 | > 32 | 32 (≈ 68.6 µM) | 
4 | COc1cc(=O)n(C2CC2)c2c(C)c(N3CC[C@@H]([C@H](C)N)C3)c(F)cc12 [Example 67, 7-((R)-3-((S)-1-aminoethyl)pyrrolidin-1-yl)-1-cyclopropyl-6-fluoro-4-methoxy-8-methylquinolin-2(1H)-one] | 8 (≈ 22.3 µM) | 0.06 (≈ 0.167 µM) | 0.06 (≈ 0.167 µM) | 0.06 (≈ 0.167 µM) | 16 (≈ 44.5 µM) | 32 (≈ 89 µM) | 8 (≈ 22.3 µM) | 
5 | COc1cc(=O)n(C2CC2)c2c(C)c(N3CC[C@@H]([C@H](C)N)C3)ccc12 [Example 68, 7-((R)-3-((S)-1-aminoethyl)pyrrolidin-1-yl)-1-cyclopropyl-4-methoxy-8-methylquinolin-2(1H)-one] | > 32 | 0.25 (≈ 0.732 µM) | 0.5 (≈ 1.46 µM) | 1 (≈ 2.93 µM) | > 32 | > 32 | 32 (≈ 93.7 µM) | 
6 | COc1cc(=O)n(C2CC2)c2c(C)c(-c3ccc(N)nc3)ccc12 [Example 69, 7-(6-aminopyridin-3-yl)-1-cyclopropyl-4-methoxy-8-methylquinolin-2(1H)-one] | > 32 | 0.5 (≈ 1.56 µM) | 2 (≈ 6.22 µM) | 2 (≈ 6.22 µM) | > 32 | > 32 | 32 (≈ 99.6 µM) | 
7 | COc1c(C)c(=O)n(C2CC2)c2c(C)c(-c3ccc(N)nc3)ccc12 [Example 70, 7-(6-aminopyridin-3-yl)-1-cyclopropyl-4-methoxy-3,8-dimethylquinolin-2(1H)-one] | > 32 | 2 (≈ 5.96 µM) | 16 (≈ 47.7 µM) | 4 (≈ 11.9 µM) | > 32 | 32 (≈ 95.4 µM) | 32 (≈ 95.4 µM) | 
8 | Cc1c(N2CC[C@@H]([C@H](C)N)C2)ccc2c(OCc3ccccc3)cc(=O)n(C3CC3)c12 [Example 71, 7-((R)-3-((S)-1-aminoethyl)pyrrolidin-1-yl)-4-(benzyloxy)-1-cyclopropyl-8-methylquinolin-2(1H)-one TFA salt] | > 32 | 6 | 2 | 6 | > 32 | > 32 | 32 | 
9 | Cc1c(N2CC[C@@H]([C@H](C)N)C2)ccc2c(O)cc(=O)n(C3CC3)c12 [Example 72, 7-((R)-3-((S)-1-aminoethyl)pyrrolidin-1-yl)-1-cyclopropyl-4-hydroxy-8-methylquinolin-2(1H)-one TFA salt] | > 32 | 16 | 16 | 8 | > 32 | 32 | 32 | 
10 | Cc1c(-c2ccc(N)nc2)ccc2ccc(=O)n(C3CC3)c12 [Example 75, 7-(6-aminopyridin-3-yl)-1-cyclopropyl-8-methylquinolin-2(1H)-one] | 32 (≈ 110 µM) | 0.5 (≈ 1.72 µM) | 8 (≈ 27.5 µM) | 8 (≈ 27.5 µM) | > 32 | > 32 | 32 (≈ 110 µM) | 
11 | Cc1c(-c2ccc(N)nc2)ccc2cc(O)c(=O)n(C3CC3)c12 [Example 77, 7-(6-Aminopyridin-3-yl)-1-cyclopropyl-3-hydroxy-8-methylquinolin-2(1H)-one TFA salt] | > 32 | 0.5 | 4 | 32 | > 32 | > 32 | 32 | 
12 | COc1cc2ccc(-c3ccc(N)nc3)c(C)c2n(C2CC2)c1=O [Example 78, 7-(6-Aminopyridin-3-yl)-1-cyclopropyl-3-methoxy-8-methylquinolin-2(1H)-one TFA salt] | > 32 | 1 | 8 | 16 | > 32 | > 32 | 32 | 
13 | COc1cc2ccc(N3CC[C@@H]([C@H](C)N)C3)c(C)c2n(C2CC2)c1=O [Example 80, 7-((R)-3-((S)-1-aminoethyl)pyrrolidin-1-yl)-1-cyclopropyl-3-methoxy-8-methylquinolin-2(1H)-one TFA salt] | > 32 | 2 | 1 | 2 | > 32 | > 32 | 32 | 
14 | Cc1c(N2CCNCC2)c(F)cc2c(CN)cc(=O)n(C3CC3)c12 [Example 81.09, 4-(aminomethyl)-1-cyclopropyl-6-fluoro-8-methyl-7-(piperazin-1-yl)quinolin-2(1H)-one] | 0.5 (≈ 1.51 µM) | 0.5 (≈ 1.51 µM) | 16 (≈ 48.4 µM) | 16 (≈ 48.4 µM) | 2 (≈ 6.05 µM) |  | 2 (≈ 6.05 µM) | 4 (≈ 12.1 µM)
15 | Cc1c(N2CC3CC3(N)C2)c(F)cc2c(CN)cc(=O)n(C3CC3)c12 (stereo not drawn) [Example 81.23, 7-(1-amino-3-azabicyclo[3.1.0]hexan-3-yl)-4-(aminomethyl)-1-cyclopropyl-6-fluoro-8-methylquinolin-2(1H)-one] | 0.5 (≈ 1.46 µM) | 0.06 (≈ 0.175 µM) | 0.5 (≈ 1.46 µM) | 0.5 (≈ 1.46 µM) | 1 (≈ 2.92 µM) | 4 (≈ 11.7 µM) | 0.25 (≈ 0.73 µM) | 
16 | Cc1c(N2CC[C@H](O)C2)c(F)cc2c(CN)cc(=O)n(C3CC3)c12 [Example 81.32, (S)-4-(aminomethyl)-1-cyclopropyl-6-fluoro-7-(3-hydroxypyrrolidin-1-yl)-8-methylquinolin-2(1H)-one] | 0.25 (≈ 0.754 µM) | < 0.03 | 0.5 (≈ 1.51 µM) | 1 (≈ 3.02 µM) | 1 (≈ 3.02 µM) | 4 (≈ 12.1 µM) | 0.5 (≈ 1.51 µM) | 
17 | Cc1c(N2CCC(F)(CN)C2)c(F)cc2c(CN)cc(=O)n(C3CC3)c12 (stereo not drawn) [Example 81.33, 4-(aminomethyl)-7-(3-(aminomethyl)-3-fluoropyrrolidin-1-yl)-1-cyclopropyl-6-fluoro-8-methylquinolin-2(1H)-one] | 0.5 (≈ 1.38 µM) | 0.06 (≈ 0.166 µM) | 0.5 (≈ 1.38 µM) | 1 (≈ 2.76 µM) | 1 (≈ 2.76 µM) | 2 (≈ 5.52 µM) | 0.5 (≈ 1.38 µM) | 
18 | Cc1c(N2CCC(F)(CN)C2)c(F)c(F)c2c(CN)cc(=O)n(C3CC3)c12 (stereo not drawn) [Example 83, 4-(aminomethyl)-7-(3-(aminomethyl)-3-fluoropyrrolidin-1-yl)-1-cyclopropyl-5,6-difluoro-8-methylquinolin-2(1H)-one TFA salt] | 0.25 | < 0.03 | 0.125 | 0.125 | 0.5 | 2 | 0.125 | 
19 | Cc1c(N2CC[C@H](N)C2)c(F)c(F)c2c(CN)cc(=O)n(C3CC3)c12 [Example 83.6, (S)-4-(aminomethyl)-7-(3-aminopyrrolidin-1-yl)-1-cyclopropyl-5,6-difluoro-8-methylquinolin-2(1H)-one] | 0.25 (≈ 0.718 µM) | 0.06 (≈ 0.172 µM) | 1 (≈ 2.87 µM) | 2 (≈ 5.74 µM) | 0.5 (≈ 1.44 µM) | 4 (≈ 11.5 µM) | 0.5 (≈ 1.44 µM) | 
20 | Cc1c(N2CCC(CN)C2)c(F)cc2c(CNCCN)cc(=O)n(C3CC3)c12.O=C(O)C(F)(F)F (stereo not drawn) [Example 87, 4-(((2-aminoethyl)amino)methyl)-7-(3-(aminomethyl)pyrrolidin-1-yl)-1-cyclopropyl-6-fluoro-8-methylquinolin-2(1H)-one TFA salt] | 4 | 0.5 | 0.5 | 0.25 | 8 |  | 8 | 16
21 | CNCc1cc(=O)n(C2CC2)c2c(C)c(N3CCC(CN)C3)c(F)cc12.O=C(O)C(F)(F)F (stereo not drawn) [Example 88, 7-(3-(aminomethyl)pyrrolidin-1-yl)-1-cyclopropyl-6-fluoro-8-methyl-4-((methylamino)methyl)quinolin-2(1H)-one TFA salt] | 2 | 0.25 | 1 | 2 | 4 |  | 4 | 16

Source: US10160726B2, “Quinolone derivatives as antibacterials” (priority 2014, dated 2018)
